Experiments:
Nectin-4 [1] = target: T1, Nectin-4 (Homo sapiens, UniProt Q96NY8); assay: In vivo blocking of [^68Ga]AJ647 uptake by non-radioactive AJ647, HT1376 xenografts; design: species or system mouse; conditions: 1 mg/kg non-radioactive AJ647; PET
T1 construct: host or cells: HT1376, SCaBER, T24, RT112, UC9, UC14 urothelial carcinoma cells; HT1376 xenografts in NSG mice
T1 sequence (Q96NY8 32-510): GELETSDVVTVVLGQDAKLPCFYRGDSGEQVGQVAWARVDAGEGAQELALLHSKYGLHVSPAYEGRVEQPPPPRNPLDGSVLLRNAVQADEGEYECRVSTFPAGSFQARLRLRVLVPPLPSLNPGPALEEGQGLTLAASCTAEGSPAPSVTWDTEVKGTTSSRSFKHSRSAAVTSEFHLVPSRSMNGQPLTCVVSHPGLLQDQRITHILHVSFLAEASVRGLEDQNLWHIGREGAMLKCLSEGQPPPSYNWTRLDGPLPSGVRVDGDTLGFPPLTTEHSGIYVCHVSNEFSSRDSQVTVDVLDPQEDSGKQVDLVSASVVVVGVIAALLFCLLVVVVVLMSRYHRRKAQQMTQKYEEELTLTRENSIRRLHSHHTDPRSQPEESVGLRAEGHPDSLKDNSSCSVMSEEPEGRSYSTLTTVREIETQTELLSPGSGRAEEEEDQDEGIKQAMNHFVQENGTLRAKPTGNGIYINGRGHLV
Protocol: Dynamic PET-MR imaging was performed for up to 90 minutes post-injection. […] By 60 minutes, the tumor contrast had further improved due to background radiotracer clearance, as evidenced by the percent injected activity per cubic centimeter (%IA/cc) values derived from [^68Ga]AJ647 PET (Fig. 4B). […] In contrast, minimal uptake was detected in non–Nectin-4-expressing tissues such as muscle.
Mice with tumor volume of ~100–150 mm^3 were injected with ~[…] (7.4 MBq) of [^68Ga]AJ647 in […] of 5% ethanol in saline intravenously and anesthetized under 2.5% isoflurane. PET-CT images were acquired at 60 minutes after radiotracer injection at 5 min/bed in an ARGUS small-animal PET/CT scanner (Sedecal, Madrid, Spain) as described (n=3 unless otherwise noted). PET-MR images were acquired on a simultaneous 7T Bruker PET-MR scanner. Dynamic imaging was conducted to evaluate pharmacokinetics of [^68Ga]AJ647. […] The SUV values were calculated by finding percent of injected activity (%IA) based on a calibration factor obtained from a known radioactive quantity, then normalizing by mice weight. […] For change in accessible Nectin-4 levels following EV treatment, ΔSUV was calculated by subtracting baseline (pre-treatment) uptake from post-therapy uptake of [^68Ga]AJ647. Target engagement was quantified by normalizing this change by initial SUV in same subject controls. […]

Nectin-4 [2] = target: T1, Nectin-4; assay: In vitro blocking of [^68Ga]AJ647 uptake by non-radioactive AJ647; format: cell-based; conditions: pre-incubation with 2 μM non-radioactive AJ647
Protocol: Figure 3. In vitro specificity of [^68Ga]AJ647 for Nectin-4 in bladder cancer cell lines A) [^68Ga]AJ647 binding (percent incubated activity, %IA) to various bladder cancer cell lines. Cells were incubated with ~37 kBq (~1 μCi) [^68Ga]AJ647 at 4°C for 1 hour. […] B) Flow cytometry analysis of Nectin-4 receptor expression across different bladder cancer cell lines, providing insight into the variability in receptor density among the cell lines. […] Data in figure A and C are represented as mean ± SD. Pearson correlation used in C.

effect on [^68Ga]AJ647 tracer uptake in HT1376 xenografts (Nectin-4 [1]): reduction in tracer uptake | effect of blocking dose on [^68Ga]AJ647 uptake in bladder cancer cell lines (Nectin-4 [2]): significantly reduced radiotracer uptake
SMILES: CSCC[C@@H]1NC(=O)[C@@H]2CSCCC(=O)N3CN(CN(C3)C(=O)CCSC[C@H](NC(=O)CCOCCOCCOCCOCCOCCOCCOCCOCCOCCOCCOCCOCCNC(=O)CN3CCN(CC(=O)O)CCN(CC(=O)O)CC3)C(=O)N3CCC[C@H]3C(=O)N[C@@H](Cc3cccc4ccccc34)C(=O)N[C@@H](CC(=O)O)C(=O)N2)C(=O)CCSC[C@@H](C(N)=O)NC(=O)[C@H](Cc2c[nH]c3ccccc23)NC(=O)[C@@H]2C[C@@H](O)CN2C(=O)[C@@H]2CCCN2C(=O)[C@H]([C@@H](C)O)NC(=O)[C@H](CO)NC(=O)[C@H](Cc2c[nH]c3ccccc23)NC(=O)[C@@H](CC(=O)O)NC(=O)[C@H](CCCCNC(=N)N)NC1=O [AJ647]
